{"source": "patent US20260069588A1", "about": "“VEPDEGESTRANT FOR USE IN TREATING CANCER” (Arvinas Operation, Inc., priority 2022, published 2026)", "key": {"[1]": {"assay": "Interconversion (epimerization) Compound A/Compound B in animals", "type": "in vivo, mouse, rat, dog, and monkey"}, "[2]": {"biological_target": "hERG channel (Homo sapiens, UniProt Q12809)", "sequence (Q12809 whole entry)": "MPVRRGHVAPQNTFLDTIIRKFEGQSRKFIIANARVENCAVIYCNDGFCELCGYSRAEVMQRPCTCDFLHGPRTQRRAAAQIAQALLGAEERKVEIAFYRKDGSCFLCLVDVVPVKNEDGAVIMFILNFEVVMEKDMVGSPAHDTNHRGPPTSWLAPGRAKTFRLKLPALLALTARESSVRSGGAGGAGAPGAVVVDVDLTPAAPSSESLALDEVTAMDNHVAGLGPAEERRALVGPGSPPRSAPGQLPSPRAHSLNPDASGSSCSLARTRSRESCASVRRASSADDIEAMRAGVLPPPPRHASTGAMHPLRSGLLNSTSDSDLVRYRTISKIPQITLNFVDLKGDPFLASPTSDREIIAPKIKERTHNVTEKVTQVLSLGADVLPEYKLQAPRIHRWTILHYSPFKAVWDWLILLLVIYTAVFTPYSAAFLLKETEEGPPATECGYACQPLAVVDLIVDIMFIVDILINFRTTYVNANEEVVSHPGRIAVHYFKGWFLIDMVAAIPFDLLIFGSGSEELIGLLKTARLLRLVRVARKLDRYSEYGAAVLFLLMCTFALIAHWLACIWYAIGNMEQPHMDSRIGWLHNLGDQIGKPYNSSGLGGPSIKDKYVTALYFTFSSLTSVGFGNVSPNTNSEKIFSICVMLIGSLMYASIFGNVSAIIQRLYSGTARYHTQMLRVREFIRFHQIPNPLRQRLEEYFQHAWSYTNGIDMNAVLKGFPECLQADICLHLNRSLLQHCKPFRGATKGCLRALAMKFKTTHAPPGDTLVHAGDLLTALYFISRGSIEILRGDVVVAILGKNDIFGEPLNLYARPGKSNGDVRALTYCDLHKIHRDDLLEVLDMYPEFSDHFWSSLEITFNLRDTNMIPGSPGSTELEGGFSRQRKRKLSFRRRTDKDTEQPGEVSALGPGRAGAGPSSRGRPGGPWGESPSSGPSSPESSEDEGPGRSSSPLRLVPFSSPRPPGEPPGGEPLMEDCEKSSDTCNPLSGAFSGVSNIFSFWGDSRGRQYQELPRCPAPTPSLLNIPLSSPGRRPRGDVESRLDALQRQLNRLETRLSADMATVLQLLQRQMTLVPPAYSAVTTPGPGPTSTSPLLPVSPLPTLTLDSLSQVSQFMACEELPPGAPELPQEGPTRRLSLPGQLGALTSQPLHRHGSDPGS", "assay": "hERG channel inhibition", "type": "biochemical", "procedure": "The pivotal nonclinical safety studies were conducted in the US in accordance with GLP regulations per the US 21 CFR Part 58. These include the cardiovascular safety pharmacology study in dogs, the pivotal 28-day and 3-month repeat-dose toxicology studies in rats and dogs, and an in vitro phototoxicity assay. The bacterial reverse mutation assay, in vitro micronucleus assay, and 2 in vitro hERG studies were conducted in the UK in accordance with the UK Good Laboratory Practice Monitoring Authority, MHRA: Good Laboratory Practice Regulations 1999, Statutory Instrument 1999 No. 3106 as amended by the Good Laboratory Practice (Codification Amendments Etc.) Regulations, 2004, Statutory Instrument 2004, No. 994; and the OECD GLP and OECD Principles on Good Laboratory Practice ENV/MC/CHEM (98) 17 (Revised in 1997, Issued January 1998).accordance with the OECD Principles of Good Laboratory Practice and as accepted by Regulatory Authorities throughout the European Union, United States of America (FDA), Japan (MHLW), and other countries that are signatories to the OECD Mutual Acceptance of Data Agreement."}, "[3]": {"conditions": "human, in vivo"}, "[4]": {"biological_target": "T1, ER (Homo sapiens, UniProt P03372)", "T1 sequence (P03372 1-595)": "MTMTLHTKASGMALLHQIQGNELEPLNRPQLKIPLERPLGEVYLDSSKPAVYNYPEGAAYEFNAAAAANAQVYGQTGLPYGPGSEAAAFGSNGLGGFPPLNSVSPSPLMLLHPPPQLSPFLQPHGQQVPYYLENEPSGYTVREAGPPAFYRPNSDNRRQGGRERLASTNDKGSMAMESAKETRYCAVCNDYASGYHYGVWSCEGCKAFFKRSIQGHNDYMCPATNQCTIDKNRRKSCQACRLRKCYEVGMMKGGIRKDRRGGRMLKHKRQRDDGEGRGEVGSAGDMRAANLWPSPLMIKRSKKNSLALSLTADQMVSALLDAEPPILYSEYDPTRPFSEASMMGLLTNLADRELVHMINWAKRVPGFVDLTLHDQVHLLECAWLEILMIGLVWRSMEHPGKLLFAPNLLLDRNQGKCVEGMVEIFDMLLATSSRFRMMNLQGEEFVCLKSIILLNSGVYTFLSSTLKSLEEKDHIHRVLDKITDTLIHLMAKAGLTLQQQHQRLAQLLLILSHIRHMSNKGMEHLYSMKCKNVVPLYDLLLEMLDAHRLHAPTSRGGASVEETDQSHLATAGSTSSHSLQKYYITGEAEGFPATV", "assay": "ER degradation in ER+ cell lines (MCF7)", "type": "cell-based", "set-up": "endogenous in cells; host or cells: MCF7 (and a panel of unnamed ER+ cell lines)"}, "[5]": {"assay": "clinical", "conditions": "human, in vivo"}, "[6]": {"assay": "Phase 2 study of Compound A or anastrozole in early ER+/HER2− breast cancer: adverse events", "conditions": "TEAE, Treatment Related per title; Compound A 200 mg N = 23, Anastrozole 1 mg N = 13"}, "[7]": {"system": "T47D cells", "assay": "Live-cell imaging proliferation, T47D", "type": "cell-based", "conditions": "Homo sapiens, 144 h, up to 6 days", "source_text": "(§1) Full growth of the cells over this time period is shown by extent of cell confluence with dimethyl sulfoxide (DMSO)."}, "[8]": {"system": "MCF7 cells", "assay": "Live-cell imaging proliferation, MCF7", "type": "cell-based", "conditions": "Homo sapiens, 144 h; MCF7, up to 6 days", "source_text": "as §1"}}, "note": "Where two headings read alike, the source gives them in different places. Marks after values point to notes of the source that are not given here."}
{"smiles": "O=C1CC[C@@H](N2Cc3cc(N4CCN(CC5CCN(c6ccc([C@@H]7c8ccc(O)cc8CC[C@@H]7c7ccccc7)cc6)CC5)CC4)ccc3C2=O)C(=O)N1", "note": "[Compound B]", "values": [{"measurement": "extent of epimerization", "setting": "[1]; monkey", "value": "negligible"}, {"measurement": "exposure of Compound B compared to Compound A", "setting": "[1]; preclinical data", "value": "< 26", "unit": "%"}, {"measurement": "IC50", "setting": "[2]", "value": "> 20", "unit": "µM"}, {"measurement": "unbound Cmax margin to hERG IC50", "setting": "[2]; recommended Phase 3 dose of 200 mg", "value": "~499", "unit": "×"}, {"measurement": "Rac (AUCtau)", "setting": "[3]; 30 mg", "value": 7.1}, {"measurement": "Tmax", "setting": "[3]; 30 mg", "value": 6.0, "unit": "h"}, {"measurement": "Rac (AUCtau)", "setting": "[3]; 60 mg", "value": 7.3}, {"measurement": "Rac (AUCtau)", "setting": "[3]; 100 mg", "value": "6.1 ^f"}, {"measurement": "Tmax", "setting": "[3]; 100 mg", "value": 6.0, "unit": "h"}, {"measurement": "Rac (AUCtau)", "setting": "[3]; 120 mg", "value": 5.7}, {"measurement": "Tmax", "setting": "[3]; 120 mg", "value": 6.0, "unit": "h"}, {"measurement": "Rac (AUCtau)", "setting": "[3]; 180 mg", "value": 6.8}, {"measurement": "Tmax", "setting": "[3]; 180 mg", "value": 5.9, "unit": "h"}, {"measurement": "Rac (AUCtau)", "setting": "[3]; 200 mg", "value": 5.1}, {"measurement": "Tmax", "setting": "[3]; 200 mg", "value": 5.9, "unit": "h"}, {"measurement": "MR AUCtau", "setting": "[3]; 250 mg", "value": 0.36}, {"measurement": "Tmax", "setting": "[3]; 250 mg", "value": 4.1, "unit": "h"}, {"measurement": "Rac (AUCtau)", "setting": "[3]; 360 mg", "value": 5.9}, {"measurement": "Tmax", "setting": "[3]; 360 mg", "value": 6.0, "unit": "h"}, {"measurement": "Rac (AUCtau)", "setting": "[3]; 500 mg", "value": 5.9}, {"measurement": "Tmax", "setting": "[3]; 500 mg", "value": 6.0, "unit": "h"}, {"measurement": "Rac (AUCtau)", "setting": "[3]; 700 mg", "value": "3.7 ^g"}, {"measurement": "Tmax", "setting": "[3]; 700 mg", "value": "7.8 ^g h"}, {"measurement": "ER degradation", "setting": "[4]", "value": "does not degrade the ER"}, {"measurement": "half-life", "setting": "[5]; 30 mg", "value": 4.33, "unit": "days"}, {"measurement": "Tmax", "setting": "[5]; 30 mg", "value": 8, "unit": "h"}, {"measurement": "half-life", "setting": "[5]; 60 mg", "value": 4.58, "unit": "days"}, {"measurement": "half-life", "setting": "[5]; 100 mg", "value": 4.12, "unit": "days"}, {"measurement": "Tmax", "setting": "[5]; 100 mg", "value": 7.8, "unit": "h"}, {"measurement": "half-life", "setting": "[5]; 120 mg", "value": 3.88, "unit": "days"}, {"measurement": "Tmax", "setting": "[5]; 120 mg", "value": 7.8, "unit": "h"}, {"measurement": "half-life", "setting": "[5]; 180 mg", "value": 3.83, "unit": "days"}, {"measurement": "Tmax", "setting": "[5]; 180 mg", "value": 7.8, "unit": "h"}, {"measurement": "half-life", "setting": "[5]; 200 mg", "value": 3.54, "unit": "days"}, {"measurement": "Tmax", "setting": "[5]; 200 mg", "value": 7.8, "unit": "h"}, {"measurement": "AUC(0-t)", "setting": "[5]; 250 mg, AUCtau (AUC0-8)", "value": 179, "unit": "ng·h/mL"}, {"measurement": "AUC(0-t)", "setting": "[5]; 250 mg, AUCtau (AUC0-12)", "value": 7390, "unit": "ng·h/mL"}, {"measurement": "Tmax", "setting": "[5]; 250 mg", "value": 7.8, "unit": "h"}, {"measurement": "half-life", "setting": "[5]; 360 mg", "value": 4, "unit": "days"}, {"measurement": "Tmax", "setting": "[5]; 360 mg", "value": 7.8, "unit": "h"}, {"measurement": "half-life", "setting": "[5]; 500 mg", "value": 4, "unit": "days"}, {"measurement": "Tmax", "setting": "[5]; 500 mg", "value": 7.8, "unit": "h"}, {"measurement": "half-life", "setting": "[5]; 700 mg", "value": 2.17, "unit": "days"}, {"measurement": "Tmax", "setting": "[5]; 700 mg", "value": 7.8, "unit": "h"}, {"measurement": "Tmax", "setting": "[5]", "value": 7.8, "unit": "h"}]}
{"smiles": "CC(C)(C#N)c1cc(Cn2cncn2)cc(C(C)(C)C#N)c1", "note": "[Anastrozole]", "values": [{"measurement": "Anemia", "setting": "[6]", "value": "1 (7.7) n (%)"}, {"measurement": "Arthralgia", "setting": "[6]", "value": "1 (7.7) n (%)"}, {"measurement": "Asphyxia", "setting": "[6]", "value": "0 n (%)"}, {"measurement": "Asthenia", "setting": "[6]", "value": "0 n (%)"}, {"measurement": "Blood and lymphatic system disorders", "setting": "[6]", "value": "1 (7.7) n (%)"}, {"measurement": "Blood uric acid increased", "setting": "[6]", "value": "0 n (%)"}, {"measurement": "Breast pain", "setting": "[6]", "value": "0 n (%)"}, {"measurement": "Cardiac disorders", "setting": "[6]", "value": "0 n (%)"}, {"measurement": "Constipation", "setting": "[6]", "value": "1 (7.7) n (%)"}, {"measurement": "Diarrhea", "setting": "[6]", "value": "0 n (%)"}, {"measurement": "Dyspepsia", "setting": "[6]", "value": "1 (7.7) n (%)"}, {"measurement": "Fatigue", "setting": "[6]", "value": "0 n (%)"}, {"measurement": "Gastrointestinal disorders", "setting": "[6]", "value": "1 (7.7) n (%)"}, {"measurement": "General disorders and administration site conditions", "setting": "[6]", "value": "0 n (%)"}, {"measurement": "Hematocrit decreased", "setting": "[6]", "value": "1 (7.7) n (%)"}, {"measurement": "Heparin-induced thrombocytopenia", "setting": "[6]", "value": "0 n (%)"}, {"measurement": "Hepatobiliary disorders", "setting": "[6]", "value": "0 n (%)"}, {"measurement": "Hot flush", "setting": "[6]", "value": "0 n (%)"}, {"measurement": "Hyperbilirubinemia", "setting": "[6]", "value": "0 n (%)"}, {"measurement": "Hypercalcemia", "setting": "[6]", "value": "0 n (%)"}, {"measurement": "Hyperglycemia", "setting": "[6]", "value": "0 n (%)"}, {"measurement": "Hypernatremia", "setting": "[6]", "value": "0 n (%)"}, {"measurement": "Hypertransaminasemia", "setting": "[6]", "value": "0 n (%)"}, {"measurement": "Hypokalemia", "setting": "[6]", "value": "0 n (%)"}, {"measurement": "Hyponatremia", "setting": "[6]", "value": "0 n (%)"}, {"measurement": "Injury, poisoning and procedural complications", "setting": "[6]", "value": "0 n (%)"}, {"measurement": "Insomnia", "setting": "[6]", "value": "0 n (%)"}, {"measurement": "Investigations", "setting": "[6]", "value": "1 (7.7) n (%)"}, {"measurement": "Lymphopenia", "setting": "[6]", "value": "1 (7.7) n (%)"}, {"measurement": "Metabolism and nutrition disorders", "setting": "[6]", "value": "0 n (%)"}, {"measurement": "Musculoskeletal and connective tissue disorders", "setting": "[6]", "value": "1 (7.7) n (%)"}, {"measurement": "Myalgia", "setting": "[6]", "value": "1 (7.7) n (%)"}, {"measurement": "Nervous system disorders", "setting": "[6]", "value": "0 n (%)"}, {"measurement": "Odynophagia", "setting": "[6]", "value": "0 n (%)"}, {"measurement": "Procedural pain", "setting": "[6]", "value": "0 n (%)"}, {"measurement": "Pruritus", "setting": "[6]", "value": "0 n (%)"}, {"measurement": "Psychiatric disorders", "setting": "[6]", "value": "0 n (%)"}, {"measurement": "Pyrexia", "setting": "[6]", "value": "0 n (%)"}, {"measurement": "Reproductive system and breast disorders", "setting": "[6]", "value": "0 n (%)"}, {"measurement": "Respiratory, thoracic and mediastinal disorders", "setting": "[6]", "value": "0 n (%)"}, {"measurement": "Sinus bradycardia", "setting": "[6]", "value": "0 n (%)"}, {"measurement": "Skin and subcutaneous tissue disorders", "setting": "[6]", "value": "0 n (%)"}, {"measurement": "Somnolence", "setting": "[6]", "value": "0 n (%)"}, {"measurement": "Stomatitis", "setting": "[6]", "value": "0 n (%)"}, {"measurement": "Tension", "setting": "[6]", "value": "0 n (%)"}, {"measurement": "Vascular disorders", "setting": "[6]", "value": "0 n (%)"}, {"measurement": "With Any Adverse Event", "setting": "[6]", "value": "2 (15.4) n (%)"}]}
{"smiles": "C[C@]12CC[C@@H]3c4ccc(O)cc4C[C@@H](CCCCCCCCC[S+]([O-])CCCC(F)(F)C(F)(F)F)[C@H]3[C@@H]1CC[C@@H]2O", "note": "(stereo partly shown) [fulvestrant, reference compound]", "values": [{"measurement": "GI50", "setting": "[7]", "value": 0.8, "unit": "nM"}, {"measurement": "GI50", "setting": "[8]", "value": 0.4, "unit": "nM"}]}
